Entries after “also recorded” stand apart in the source; their conditions may differ.
What was measured:
Assay type in all cases: cell-based
OR4X2 = target: T1, OR4X2 (Homo sapiens, UniProt Q8NGF9); assay: Ca-imaging of OR4X2-transfected HEK293 cells; design: key to OR4X2 responded to odorant: ▪: 18 olfactory receptors responded to 32 odorants in related with specific anosmia; conditions: for Response of OR4X2 to odorant, in words: single odorants 200 μM; for Number of cell responses, Experiment (OR4X2): odorant 200 μM, approximately 2000 transfected cells in three times of measuring (Table 4, FIG. 5)
T1 construct: specific primers, which amplify the complete open reading frame; expressed in transfected cells; host or cells: HEK293
T1 sequence (Q8NGF9 1-303): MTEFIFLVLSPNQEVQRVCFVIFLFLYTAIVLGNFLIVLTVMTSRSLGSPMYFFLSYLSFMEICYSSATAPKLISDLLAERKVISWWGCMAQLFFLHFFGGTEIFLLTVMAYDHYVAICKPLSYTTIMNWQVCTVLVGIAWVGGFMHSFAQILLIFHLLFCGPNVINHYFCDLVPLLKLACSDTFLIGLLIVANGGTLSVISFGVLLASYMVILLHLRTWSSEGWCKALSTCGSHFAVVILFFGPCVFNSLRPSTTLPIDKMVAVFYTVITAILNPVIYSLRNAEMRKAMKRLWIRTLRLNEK
Experimental: (§1) HEK293 cells were cultivated in Petri dishes (Ø35 mm) as previously described (Benbernou et al. 2007). We grow up HEK293 cells in culture medium containing standard DMEM with 10% heat-inactivated fetal bovine serum, 2 mM L-glutamine, 100 units/ml penicillin, and 100 units/ml streptomycin in a humidified atmosphere (37° C., 5% CO2). After 2-3 days, the transfection process was carried out, whereby the cell culture was 70-80% confluent. The calciumphosphate method was applied to transfect DNA plasmid transiently in HEK293 cells in case of Ca-imaging method.
(§2) Calcium cations and phosphate anions created crystal precipitations coupled with DNA which could invade into the cells through endocytosis. Cells were transiently transfected with plasmid DNA which consists of pCI expression vector and PCR-amplified full-length cDNA of olfactory receptors candidates, and also Gα15, RTP1, Myr-Ric8A, HSC70, and m-Cherry as cofactors. The precipitation could be created after 15-20 min, with dropping the transfection solution on HEK293 cells. Before measuring by Ca-imaging cells were incubated 48-60 hours at 370 C, 5% CO2. Cationic liposome-mediated transfection method was applied to transfect DNA plasmid transiently in HANA3A cells in case of CRE-Luciferase and CRE-SEAP assays.
(§3) Calcium imaging of the transfected HEK293 cells was done by using chambers determinate an inverted microscope (Olympus; IX70) using a 10× objective (CPIanFL N Olympus). Fluorescence emission was determined every 4 s by using a CCD camera (Charge Coupled Device, C9100 Hamamatsu). The capillary tube which was responsible to supply odorants was generated closely above the cells. The columns filled with odorants, DMSO and ATP. Odorants were manually monitored to drop each 4-5 s to transfected cells. Solutions with drop wise form spread on HEK293 cells in 35 mm dishes.
(§4) In experiments, Fura-2 Acetoxymethylester (Fura-2/AM) was applied. The non-polar Fura2/AM is fluorescent but not yet calcium-sensitive. Once diffuses into cell plasma, Fura-2/AM is hydrolyzed to Fura-2 which is calcium-sensitive and functions as Ca2+ chelator. Regardless of the presence of calcium, Fura-2 emits at the wavelength of 510 nm. Once Fura-2 binds to free intracellular Ca2+ in cell plasma, its ratio of excitation at wavelengths of 340 nm and 380 nm is changed and correlated to the amount of intracellular Ca2+. According to this feature, the analysis of 340/380 nm excitation ratio for Fura-2 allows to quantify intracellular calcium levels.
(§5) In preparation for Ca-imaging measurements, transfected HEK293 cells were added 3 it Fura2/AM (3 μM) and incubated 30-45 min at 370 C, 5% CO2. After this step, experiments were carried out in a dark condition (Fura-2 is light-sensitive). After the incubation, medium of cell culture was replaced with 2 ml Ringer's solution.
(§6) Odorants were freshly prepared with DMSO as 1 M stocks solutions. Six mixtures (200 μM each chemical) were applied to cells sequentially (20 s each mixture/30 s Ringer). Those ORs tested with single odorants that had generated a response to odorant mixture group previously. Odorants were prepared in 100-200 μM concentration.
(§7) Ringer's solution was used for washing cells between measuring by two different odorants. Positive response was determined by the timing of the response, the strength of the response (more than twofold higher than the noise amplitude of the baseline), and the shape of the response curve (sharp rise in curve with gradual recovery). The typical shape of response curves was established by observing responses to repeated stimulation with 200 μM of odorants. After testing with single odorants at 100 μM, stimulating odorants were often retested at 200 μM concentrations. To confirm the result of every receptor that produced a significant response curves, the experiment was repeated for twelve times. Finally, cells were exposed to ATP (0.25 mM) which could activate P2Y receptor channel and induce Ca2+ influx into cells. […]

OR1B1 = target: T2, OR1B1 (Homo sapiens, UniProt Q8NGR6); assay: Ca-imaging of OR1B1-transfected HEK293 cells; design: key to OR1B1 responded to odorant: ▪: 18 olfactory receptors responded to 32 odorants in related with specific anosmia; conditions: for Number of cell responses, Experiment (OR1B1): odorant 200 μM, approximately 2000 transfected cells in three times of measuring (Table 4, FIG. 5)
T2 construct: specific primers, which amplify the complete open reading frame; expressed in transfected cells; host or cells: HEK293
T2 sequence (Q8NGR6 1-317): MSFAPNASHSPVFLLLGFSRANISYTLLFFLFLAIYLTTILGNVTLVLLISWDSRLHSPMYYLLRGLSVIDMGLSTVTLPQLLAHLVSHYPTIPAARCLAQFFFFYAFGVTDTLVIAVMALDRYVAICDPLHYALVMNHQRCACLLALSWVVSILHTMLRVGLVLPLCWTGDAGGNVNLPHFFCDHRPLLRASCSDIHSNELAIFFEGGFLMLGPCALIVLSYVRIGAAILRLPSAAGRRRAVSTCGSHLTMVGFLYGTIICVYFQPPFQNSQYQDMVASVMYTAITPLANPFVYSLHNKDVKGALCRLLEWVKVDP
Experimental: as §1, §2, §3, §4, §5, §6, §7

[1] = system: HEK293 cells transfected with all cofactors and pCI plasmids without ORs; assay: Ca-imaging of control HEK293 cells without OR; conditions: odorant 200 μM, three times of measuring (Table 4, FIG. 5)
Experimental: as §1, §2, §3, §4, §5, §6, §7

OR10A6 = target: T3, OR10A6 (Homo sapiens, UniProt Q8NH74); assay: Ca-imaging of OR10A6-transfected HEK293 cells; design: key to OR10A6 responded to odorant: ▪: 18 olfactory receptors responded to 32 odorants in related with specific anosmia
T3 construct: specific primers, which amplify the complete open reading frame; expressed in transfected cells; host or cells: HEK293
T3 sequence (Q8NH74 1-314): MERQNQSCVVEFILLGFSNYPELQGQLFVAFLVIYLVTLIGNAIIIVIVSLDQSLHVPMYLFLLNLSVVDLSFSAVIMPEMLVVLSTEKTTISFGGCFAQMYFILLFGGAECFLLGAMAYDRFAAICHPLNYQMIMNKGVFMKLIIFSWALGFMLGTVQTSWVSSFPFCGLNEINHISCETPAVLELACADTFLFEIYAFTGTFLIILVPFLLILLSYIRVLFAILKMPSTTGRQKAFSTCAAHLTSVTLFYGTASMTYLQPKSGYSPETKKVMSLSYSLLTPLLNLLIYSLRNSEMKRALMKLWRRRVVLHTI
Experimental: as §1, §2, §3, §4, §5, §6
Ringer's solution was used for washing cells between measuring by two different odorants. Positive response was determined by the timing of the response, the strength of the response (more than twofold higher than the noise amplitude of the baseline), and the shape of the response curve (sharp rise in curve with gradual recovery). […]

OR8D2 = target: T4, OR8D2 (Homo sapiens, UniProt Q9GZM6); assay: Ca-imaging of OR8D2-transfected HEK293 cells; design: key to OR8D2 responded to odorant: ▪: 18 olfactory receptors responded to 32 odorants in related with specific anosmia
T4 construct: specific primers, which amplify the complete open reading frame; expressed in transfected cells; host or cells: HEK293
T4 sequence (Q9GZM6 1-311): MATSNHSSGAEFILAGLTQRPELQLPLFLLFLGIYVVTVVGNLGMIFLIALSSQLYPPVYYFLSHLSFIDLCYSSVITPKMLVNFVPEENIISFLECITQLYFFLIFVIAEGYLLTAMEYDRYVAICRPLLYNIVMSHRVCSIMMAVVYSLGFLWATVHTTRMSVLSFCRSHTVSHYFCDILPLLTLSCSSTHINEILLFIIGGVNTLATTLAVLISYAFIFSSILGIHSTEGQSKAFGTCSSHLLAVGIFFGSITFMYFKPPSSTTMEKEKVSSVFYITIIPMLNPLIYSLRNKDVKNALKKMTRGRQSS
Experimental: as §1, §2, §3, §4, §5, §6, §7

OR8B4 = target: T5, OR8B4 (Homo sapiens, UniProt Q96RC9); assay: Ca-imaging of OR8B4-transfected HEK293 cells; design: key to OR8B4 responded to odorant: ▪: 18 olfactory receptors responded to 32 odorants in related with specific anosmia; conditions: for OR8B4 responded to odorant / Response of OR8B4 to odorant, in words: Ca-imaging; for OR8B4 responded to odorant: HEK293 cells, individual odorant 200 μM, significant response p<0.05; for Response of OR8B4 to odorant, in words: single odorants 200 μM; for Number of cell responses (OR8B4): odorant 200 μM, approximately 2000 transfected cells in three times of measuring (FIG. 5)
T5 construct: specific primers, which amplify the complete open reading frame; expressed in transfected cells; host or cells: HEK293
T5 sequence (Q96RC9 1-309): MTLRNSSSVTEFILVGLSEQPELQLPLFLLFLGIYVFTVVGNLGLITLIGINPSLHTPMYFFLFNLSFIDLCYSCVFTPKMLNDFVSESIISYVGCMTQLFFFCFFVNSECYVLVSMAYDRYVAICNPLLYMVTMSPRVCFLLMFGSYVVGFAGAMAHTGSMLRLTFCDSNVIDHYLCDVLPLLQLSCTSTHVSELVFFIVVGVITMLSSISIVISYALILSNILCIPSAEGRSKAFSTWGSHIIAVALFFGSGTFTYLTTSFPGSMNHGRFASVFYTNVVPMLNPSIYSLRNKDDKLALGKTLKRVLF
Experimental: as §1, §2, §3, §4, §5, §6, §7

[2] = Ca-imaging, HEK293 cells, individual odorant 200 μM, significant response p<0.05
[3] = Ca-imaging, single odorants 200 μM

## NCC(=O)c1ccccc1 [2-aminoacetophenon, 2-Aminoacetophenone]
OR4X2; [2]
  OR4X2 responded to odorant: ▪
OR4X2; Ca-imaging
  Response of OR4X2 to odorant, in words: could be the receptor
OR4X2; Ca-imaging, listed as 2-aminoacetophenone
  Response of OR4X2 to odorant, in words: responded
OR4X2
  Number of cell responses, Experiment (OR4X2): 20

## Cc1occc(=O)c1O [3-Hydroxy-2-Methyl-4-Pyran, 3-Hydroxy-2-Methyl-4-Pyran-4-one]
OR1B1; [2]
  OR1B1 responded to odorant: ▪
OR1B1; [3]
  Response of OR1B1 to odorant, in words: significantly (P<0.05) activated
OR1B1; listed as 3-Hydroxy-2-methyl-4-pyranone
  Number of cell responses, Experiment (OR1B1): 35
OR1B1; listed as 3-hydroxy-2-methyl-4-pyrane
  Number of cell responses, Experiment (OR1B1): 9
[1]
  Number of cell responses, Control: 5

## CCCCCCO [Alcohol C6]
OR10A6; HEK293 cells, individual odorant 200 μM, significant response p<0.05
  OR10A6 responded to odorant: ▪
OR10A6; single odorants 200 μM
  Response of OR10A6 to odorant, in words: elicited a response; also recorded: detected
OR8D2; [2]
  OR8D2 responded to odorant: ▪
OR8D2; [3]
  Response of OR8D2 to odorant, in words: elicited a response; also recorded: significantly activated; also recorded: detected
OR8D2; odorant 200 μM, approximately 2000 transfected cells in three times of measuring (Table 4, FIG. 5)
  Number of cell responses, Experiment (OR8D2): 9

## CCCCCC=O [Aldehyde C6, Aldehyd C6]
[1]
  Number of cell responses, Control: 0
OR8B4
  OR8B4 responded to odorant: ▪
  Response of OR8B4 to odorant, in words: responded significantly
  Number of cell responses (OR8B4): 8
OR4X2
  Number of cell responses, Experiment (OR4X2): 8

## COc1ccc(C=O)cc1 [Anisic aldehyde, Anisic Aldehyde]
[1]
  Number of cell responses, Control: 0
OR8B4
  OR8B4 responded to odorant: ▪
  Response of OR8B4 to odorant, in words: responded significantly
  Number of cell responses (OR8B4): 14
OR4X2
  Number of cell responses, Experiment (OR4X2): 14

Source: patent US9939427B2, “Method for evaluating the scent performance of perfumes or perfume mixtures” (Symrise AG, priority 2013, dated 2018)
